According to patent US10675321B2, “Botanical extracts and compounds from Castanea plants and methods of use” (priority 2015, dated 2020):
Converted amounts (≈) assume the structure as drawn.

Experiments:
Assay type in all cases: cell-based
[1] = system: Staphylococcus aureus AH1872; assay: microbe, parasite or virus in culture; settings: AH1872, 18 h
[2] = system: Staphylococcus aureus AH430; assay: MIC by microtiter broth dilution, strain AH430; settings: 18 hrs static; for MIC50: at least 50% inhibition of growth by OD; for MIC90: at least 90% inhibition of growth by OD
[3] = system: Propionibacterium acnes ATCC6919; assay: Growth inhibition (MIC) of Propionibacterium acnes ATCC6919; settings: Cutibacterium acnes
[4] = system: Propionibacterium acnes HL005PA2; assay: Growth inhibition (MIC) of Propionibacterium acnes HL005PA2; settings: Cutibacterium acnes, P. acnes HL005PA2
[5] = system: Staphylococcus aureus UAMS-1; assay: MIC by microtiter broth dilution, strain UAMS-1; settings: 18 hrs static
[6] = system: Staphylococcus aureus AH1747; assay: MIC by microtiter broth dilution, strain AH1747; settings: 18 hrs static

SMILES	MIC50 [1] [µg/mL]	MIC90 [1] [µg/mL]	MIC50 [2] [µg/mL]	MIC90 [2] [µg/mL]	MIC50 [3] [µg/mL]	MIC90 [3] [µg/mL]	MIC50 ([4]; 50% inhibition of the growth control) [µg/mL]	MIC90 ([4]; 90% inhibition) [µg/mL]	MIC50 ([5]; UAMS1, 50% inhibition of growth) [µg/mL]	MIC90 ([5]; UAMS1, 90% inhibition of growth) [µg/mL]	MIC50 ([6]; 50% inhibition of growth) [µg/mL]	MIC90 ([6]; 90% inhibition of growth) [µg/mL]
CC1(C)S[C@@H]2[C@H](NC(=O)[C@H](N)c3ccccc3)C(=O)N2[C@H]1C(=O)O [Amp, Ampicillin]	4 (≈ 11.4 µM)	8 (≈ 22.9 µM)	0.0625 (≈ 0.179 µM)	0.125 (≈ 0.358 µM)	–	–	–	–	–	–	–	–
CCC[C@@H]1C[C@@H](C(=O)N[C@@H]([C@H]2O[C@H](SC)[C@H](O)[C@@H](O)[C@H]2O)[C@H](C)Cl)N(C)C1 [Clin, clindamycin]	–	–	–	–	0.125 (≈ 0.294 µM)	0.125 (≈ 0.294 µM)	0.0625 (≈ 0.147 µM)	0.25 (≈ 0.588 µM)	–	–	–	–
NC[C@H]1O[C@H](O[C@H]2[C@H](O)[C@@H](O[C@H]3O[C@H](CO)[C@@H](O)[C@H](N)[C@H]3O)[C@H](N)C[C@@H]2N)[C@H](O)[C@@H](O)[C@@H]1O [Kan, Kanamycin]	1 (≈ 2.06 µM)	4 (≈ 8.26 µM)	2 (≈ 4.13 µM)	4 (≈ 8.26 µM)	–	–	–	–	2 (≈ 4.13 µM)	4 (≈ 8.26 µM)	1 (≈ 2.06 µM)	2 (≈ 4.13 µM)
